Measurements: patent US9320736B2, “Zinc chelating agents for depleting XIAP and sensitizing tumor cells to apoptosis” (Institute for Cancer Research, priority 2012, dated 2016)
Entries after “also recorded” stand apart in the source; their conditions may differ.

Legend:
XIAP [1] = assay: XIAP depletion in PC-3 cells by Western blot / immunoblotting; format: cell-based, human; conditions: for XIAP depletion (Western blot): chelator 50 μM, 4 hours, FIG. 3/4; for depletion of XIAP compared with TPEN: prostate cancer cells
Description: PC-3 cells were cultured in medium alone, or in the presence of PPIX (50 μM) for 4 hours, or 5-Ala (250 μM) for 24 hours. Expression of XIAP and GAPDH (control) was detected by immunoblotting with an antibody to XIAP or GADPH, respectively.
Cell Lines and Culture Conditions. A PC-3 castration-resistant prostate cancer cell line was obtained from the American Type and Culture Collection (Rockville, Md.). PC-3 cells were maintained in complete cell culture medium (RPMI 1640 medium (Bio-Whittaker, Walkersville, Md.) supplemented with 10% FCS (Hyclone, Logan, Utah), gentamicin (50 mg/L), sodium pyruvate (1 mM) and non-essential amino acids (0.1 mM)).
Analysis of XIAP Depletion in PC-3 Cell Line Following Administration of Heterocyclic Zn Chelators. PC-3 cells were cultured under three distinct conditions; medium alone, with administration of TPEN (8 μM) as a positive control for 2 hours, and with administration of an individual Zn chelators (MR) (50 μM) for 4 hours.
Western blot analysis was performed to assess for level of XIAP depletion. Whole cell lysates were prepared as described previously (Kolenko V et al. (1999) J. Immunol. 163: 590-8). Protein concentrations were measured with BCA protein assay reagents (Pierce, Rockford, Ill.). Equivalent amounts of proteins (20 μg) were mixed with an equal volume of 2× Laemmli sample buffer, boiled and resolved by electrophoresis in 10% sodium dodecyl sulfate-polyacrylamide gels (SDS-PAGE). The proteins were transferred from the gel to a nitrocellulose membrane using an electroblotting apparatus (Bio-Rad) (15 V, 3 mA/cm2 for 24 minutes).
Membranes were then incubated in a blocking solution containing 5% nonfat dry milk overnight to inhibit nonspecific binding. The membranes were then incubated with specific antibody (1-3 μg/ml) for 2 hours. After washing in TRIS/0.1% Tween 20 for 30 minutes, membranes were incubated for another 30 minutes with horseradish peroxidase-conjugated secondary antibody. The membranes were then washed and developed with enhanced chemiluminescence (ECL Western Blotting Kit, Amersham, Arlington Heights, Ill.).

PC-3 tumors = assay: PC-3 tumor growth in ectopic xenograft mouse model of prostate cancer; format: in vivo; conditions: 5-Ala ip 10 mg/mouse daily combined with HGS-ETR1 iv 0.25 mg/mouse once a week, PC-3 tumors in male C.B17/Icr-scid mice, FIG. 2
Description: PC-3 tumors were established in male C.B17/Icr-scid mice. When tumor volumes reach approximately 200 mm^3, the animals were grouped (n=5 for each group) and treated with saline (control), an ip injection of 5-Ala (10 mg/mouse, daily) and/or an iv injection of HGS-ETR1 (0.25 mg/mouse once a week).

PC-3 cells = assay: TRAIL-mediated apoptosis in PC-3 cells (DNA fragmentation assay); format: cell-based, human; conditions: chelator combined with TRAIL, FIG. 4
[2] = Intravenous tolerability in C.B17/Icr-scid mice; format: in vivo; conditions: two 6 week-old male C.B17/Icr-scid mice, iv 100 μl at 15 mM
Description: Animal Studies. Two 6 week-old male C.B17/Icr-scid mice were injected intravenously with 100 μl of MR13 chelator at final concentration of 15 mM.

[3] = test system: cIAP1, cIAP2 and surviving; assay: Expression of other zinc-containing IAP family members in TPEN-treated cells; format: cell-based
Source text: (§1) The inhibition of XIAP expression is selective, as TPEN has no effect on the expression levels of other zinc-containing members of IAP family, i.e., cIAP1, cIAP2 and surviving. As well, the XIAP mRNA level is not reduced in TPEN-treated cells. Therefore, zinc chelation by TPEN induces depletion of XIAP specifically at the protein level. […] Importantly, the sensitization to therapeutic agents is specific to malignant but not to benign cells. This cytotoxic specificity for malignant cells is consistent with experiments showing that XIAP is preferentially degraded in malignant but not in benign cells upon zinc chelation and stems from blunted regulation of zinc uptake transporters upon carcinogenesis.

XIAP mRNA = XIAP mRNA level in TPEN-treated cells; format: cell-based
Source text: as §1

XIAP [4] = assay: XIAP protein levels in xenograft animal model of human prostate cancer; format: in vivo
Source text: as §1

malignant cells = assay: Potentiation of therapeutic agents by TPEN in malignant cells; format: cell-based; conditions: specific to malignant, not benign cells
Source text: as §1

XIAP [5] = conditions: human prostate cancer cells; Makhov et al. 2008; cited from earlier work

Row | Compound | XIAP depletion (Western blot) (XIAP [1]; PC-3 cells) | depletion of XIAP compared with TPEN (XIAP [1]) | promotion of TRAIL-mediated cell death / apoptotic response (PC-3 cells) | further results
1 | NCC(=O)CCC(=O)O [5-Ala, 5-aminolevulinic acid, reference compound] | – | – | – | XIAP expression (immunoblot) (XIAP [1]; PC-3 cells, 5-Ala 250 μM, 24 hours, FIG. 1): reduces XIAP levels; also recorded: significantly reduced XIAP expression; tumor growth / antitumor effect (PC-3 tumors): augments HGS-ETR1 the antitumor effect; tumor growth / antitumor effect (PC-3 tumors; listed as 5-ALA): completely arrested tumor growth
2 | O=S(=O)(Nc1cccc2cccnc12)c1ccc(F)c(Cl)c1 [MR13] | completely depleted XIAP | at least as effectively as TPEN | promoted TRAIL-mediated cell death | tolerability of intravenous administration [2]: well tolerated
3 | O=S(=O)(Nc1ccccc1-c1nc2ccccc2[nH]1)c1ccc(F)cc1 [MR66] | failed to induce XIAP depletion | – | did not succeeded in producing an apoptotic response | –
4 | N#Cc1ccc(S(=O)(=O)Nc2cccc3cccnc23)cc1 [MR44] | completely depleted XIAP | at least as effectively as TPEN | promoted TRAIL-mediated cell death | –
5 | c1ccc(CN(CCN(Cc2ccccn2)Cc2ccccn2)Cc2ccccn2)nc1 [TPEN, N,N,N′,N′-tetrakis(2-pyridylmethyl)-ethylenediamine] | – | – | – | effect on expression levels of other zinc-containing IAP family members [3]: no effect; XIAP mRNA level (XIAP mRNA): not reduced; XIAP protein levels in vivo (XIAP [4]): rapid decrease of XIAP protein levels; potentiation of the action of HGS-ETR1 (mapatumumab) and docetaxel (malignant cells): markedly potentiated; depletion of XIAP (XIAP [5]): selective and rapid depletion; also recorded: rapidly depletes XIAP
6 | O=S(=O)(Nc1ccccc1-c1nc2ccccc2[nH]1)c1c(F)cccc1F [MR96] | failed to induce XIAP depletion | – | did not succeeded in producing an apoptotic response | –
